Assay [1] concerns the target T1, 1-phosphatidylinositol 3-phosphate 5-kinase (Homo sapiens, UniProt Q9Y2I7).
Assay [2] concerns the target T1, 1-phosphatidylinositol 3-phosphate 5-kinase. The assay can be described thus: Binding affinity to PIKfyve (unknown origin) assessed as dissociation constant by KINOMEscan profiling method.
For another assay, the system named is MDA-MB-231. The assay can be described thus: cells. The following applies: Homo sapiens, MDA-MB-231, 24 h.
The subject of a further assay is HeLa. The assay is described as follows: cells. The settings on record: Homo sapiens, 24 h.

T1 sequence (Q9Y2I7 whole entry): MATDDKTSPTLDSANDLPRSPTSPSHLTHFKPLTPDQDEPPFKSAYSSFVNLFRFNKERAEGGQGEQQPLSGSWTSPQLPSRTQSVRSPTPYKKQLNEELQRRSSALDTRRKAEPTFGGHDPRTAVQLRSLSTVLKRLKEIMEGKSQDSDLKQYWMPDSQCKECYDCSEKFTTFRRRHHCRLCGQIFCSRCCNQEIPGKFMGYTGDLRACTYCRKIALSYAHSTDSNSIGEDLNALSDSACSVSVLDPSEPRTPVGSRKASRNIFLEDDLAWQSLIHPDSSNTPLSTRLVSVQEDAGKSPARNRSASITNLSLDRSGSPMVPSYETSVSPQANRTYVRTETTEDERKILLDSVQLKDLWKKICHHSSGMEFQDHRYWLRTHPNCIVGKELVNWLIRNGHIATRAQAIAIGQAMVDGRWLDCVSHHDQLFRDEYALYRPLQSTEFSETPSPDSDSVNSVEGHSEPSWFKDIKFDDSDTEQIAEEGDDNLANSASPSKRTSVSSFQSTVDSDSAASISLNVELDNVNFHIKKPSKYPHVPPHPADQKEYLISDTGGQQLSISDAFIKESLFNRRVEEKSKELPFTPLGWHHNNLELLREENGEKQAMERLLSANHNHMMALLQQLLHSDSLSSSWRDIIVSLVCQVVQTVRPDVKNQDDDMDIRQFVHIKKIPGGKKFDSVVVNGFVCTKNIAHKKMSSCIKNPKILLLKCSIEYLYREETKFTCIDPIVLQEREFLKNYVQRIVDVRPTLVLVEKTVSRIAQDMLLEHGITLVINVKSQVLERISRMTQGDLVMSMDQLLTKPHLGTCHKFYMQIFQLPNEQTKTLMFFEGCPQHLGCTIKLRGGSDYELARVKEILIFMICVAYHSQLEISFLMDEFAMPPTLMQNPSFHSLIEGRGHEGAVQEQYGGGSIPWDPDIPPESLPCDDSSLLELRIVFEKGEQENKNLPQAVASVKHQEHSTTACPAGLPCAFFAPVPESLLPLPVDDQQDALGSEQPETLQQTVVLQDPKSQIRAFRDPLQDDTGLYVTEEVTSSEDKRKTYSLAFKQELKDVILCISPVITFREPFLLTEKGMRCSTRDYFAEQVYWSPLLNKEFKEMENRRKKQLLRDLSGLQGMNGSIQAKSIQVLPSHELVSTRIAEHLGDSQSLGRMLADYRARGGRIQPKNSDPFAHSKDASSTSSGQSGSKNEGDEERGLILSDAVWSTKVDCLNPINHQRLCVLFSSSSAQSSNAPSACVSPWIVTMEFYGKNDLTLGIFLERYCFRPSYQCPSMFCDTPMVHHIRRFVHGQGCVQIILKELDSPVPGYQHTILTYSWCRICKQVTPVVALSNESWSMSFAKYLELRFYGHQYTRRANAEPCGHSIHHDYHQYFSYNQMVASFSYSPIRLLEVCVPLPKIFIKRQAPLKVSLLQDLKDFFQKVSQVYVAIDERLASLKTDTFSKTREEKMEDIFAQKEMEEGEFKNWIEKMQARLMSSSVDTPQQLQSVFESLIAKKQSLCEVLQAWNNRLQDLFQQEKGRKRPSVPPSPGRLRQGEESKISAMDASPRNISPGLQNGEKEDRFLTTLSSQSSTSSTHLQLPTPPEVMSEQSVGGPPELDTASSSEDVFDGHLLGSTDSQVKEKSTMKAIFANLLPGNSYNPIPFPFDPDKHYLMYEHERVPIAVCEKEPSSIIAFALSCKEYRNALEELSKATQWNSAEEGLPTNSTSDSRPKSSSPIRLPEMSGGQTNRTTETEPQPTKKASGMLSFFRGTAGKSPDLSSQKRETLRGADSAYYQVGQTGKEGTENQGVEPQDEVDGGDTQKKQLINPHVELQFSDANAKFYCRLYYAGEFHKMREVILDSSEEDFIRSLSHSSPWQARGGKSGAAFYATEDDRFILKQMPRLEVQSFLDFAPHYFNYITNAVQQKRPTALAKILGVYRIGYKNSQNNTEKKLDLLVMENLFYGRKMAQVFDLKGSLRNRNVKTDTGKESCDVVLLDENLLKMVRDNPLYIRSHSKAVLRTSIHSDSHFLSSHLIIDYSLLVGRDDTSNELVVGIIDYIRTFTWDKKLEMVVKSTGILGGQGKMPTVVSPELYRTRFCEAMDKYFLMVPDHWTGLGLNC
Description for HeLa: Antiproliferative activity against human HeLa cells assessed as inhibition of cell viability incubated for 24 hrs by CCK8 assay
Description for MDA-MB-231: Antiproliferative activity against human MDA-MB-231 cells assessed as inhibition of cell viability incubated for 24 hrs by CCK8 assay

Usually Kd stands for the equilibrium constant for the complex coming apart. As to `COc1ccc2[nH]c(C)c(/C=C/C(=O)c3ccncc3)c2c1`, the values for the Kd in assay [1] and in assay [2] were 3.75 nM and 5.3 nM, respectively.
Broadly, the IC50 is the midpoint of a concentration-inhibition curve. A lower IC50 goes with greater potency in that assay. `Nc1ncnc2c1c(-c1cc3ccccc3o1)cn2[C@H]1CC[C@@H](N)CC1`: the figures for the IC50 with MDA-MB-231 and in the assay with HeLa were 350 nM and 430 nM, respectively. This compound came in with a Kd in assay [1] of 1.65 nM.
With `Nc1ncnc2c1c(-c1coc3ccccc13)cn2[C@H]1CC[C@@H](N)CC1`, the IC50 in the assay on MDA-MB-231 and with HeLa was > 5000 nM throughout.
Turning to `Cc1cccc(/C=N/Nc2cc(N3CCOCC3)nc(OCCc3ccccn3)n2)c1` [APILIMOD], the IC50 in the assay with MDA-MB-231 came to 100 nM; with HeLa it was 140 nM.

These data come from ChEMBL document CHEMBL5532663, “Discovery of Potent and Selective Phosphatidylinositol 3-Phosphate 5-Kinase (PIKfyve) Inhibitors as Methuosis Inducers” (J Med Chem, 2024).
